According to patent publication US9181230B2, “Morpholine compounds and uses thereof” (Hoffmann-La Roche Inc., priority 2013, dated 2015):
Where a name gives a salt, the structure may show the parent alone.

What was measured:
mouse TAAR1 = mouse TAAR1 (Mus musculus (Mouse), UniProt Q923Y8); test: Radioligand binding assay on mouse TAAR1; conditions: mouse TAAR1, membranes of HEK-293 cells, first value of the cell pair mouse/rat
Description: (§1) For the construction of expression plasmids the coding sequences of human, rat and mouse TAAR 1 were amplified from genomic DNA essentially as described by Lindemann et al.. The Expand High Fidelity PCR System (Roche Diagnostics) was used with 1.5 mM Mg^2+ and purified PCR products were cloned into pCR2.1-TOPO cloning vector (Invitrogen) following the instructions of the manufacturer. PCR products were subcloned into the pIRESneo2 vector (BD Clontech, Palo Alto, Calif.), and expression vectors were sequence verified before introduction in cell lines.
(§2) HEK293 cells (ATCC # CRL-1573) were cultured essentially as described by Lindemann et al. (2005). For the generation of stably transfected cell lines HEK293 cells were transfected with the pIRESneo2 expression plasmids containing the TAAR coding sequences (described above) with Lipofectamine 2000 (Invitrogen) according to the instructions of the manufacturer, and 24 hrs post transfection the culture medium was supplemented with 1 mg/ml G418 (Sigma, Buchs, Switzerland). After a culture period of about 10 d clones were isolated, expanded and tested for responsiveness to trace amines (all compounds purchased from Sigma) with the cAMP Biotrak Enzyme immunoassay (EIA) System (Amersham) following the non-acetylation EIA procedure provided by the manufacturer.
(A) Radioligand Binding Assay on Mouse TAAR1
(§3) Membrane Preparation and Radioligand Binding.
(§4) HEK-293 cells stably expressing mouse TAAR1 were maintained at 37° C. and 5% CO2 in DMEM high glucose medium, containing fetal calf serum (10%, heat inactivated for 30 min at 56° C.), penicillin/streptomycin (1%), and 375 μg/ml geneticin (Gibco). Cells were released from culture flasks using trypsin/EDTA, harvested, washed twice with ice-cold PBS (without Ca^2+ and Mg^2+), pelleted at 1,000 rpm for 5 min at 4° C., frozen and stored at −80° C. Frozen pellets were suspended in 20 ml HEPES-NaOH (20 mM, pH 7.4) containing 10 mM EDTA and homogenized with a Polytron (PT 6000, Kinematica) at 14,000 rpm for 20 s. The homogenate was centrifuged at 48,000×g for 30 min at 4° C. Subsequently, the supernatant was removed and discarded, and the pellet resuspended in 20 ml HEPES-NaOH (20 mM, pH 7.4) containing 0.1 mM EDTA using the Polytron (20 s at 14,000 rpm). This procedure was repeated and the final pellet resuspended in HEPES-NaOH containing 0.1 mM EDTA and homogenized using the Polytron. Typically, aliquots of 2 ml membrane portions were stored at −80° C. With each new membrane batch the dissociation constant (Kd) was determined via a saturation curve. […] Nonspecific binding was defined as the amount of ^3[H]-(S)-4-[(ethyl-phenyl-amino)-methyl]-4,5-dihydro-oxazol-2-ylamine bound in the presence of 10 μM unlabeled ligand. All compounds were tested at a broad range of concentrations (10 pM to 10 μM) in duplicates. […] The 96 deep well plates were incubated for 1 hr at 4° C. Incubations were terminated by rapid filtration through Unifilter-96 plates (Packard Instrument Company) and glass filters GF/C (Perkin Elmer) presoaked for 1 hr in polyethylenimine (0.3%) and washed 3 times with 1 ml of cold binding buffer. After addition of 45 μl of Microscint 40 (PerkinElmer) the Unifilter-96 plate was sealed and after 1 hr the ratioactivity counted using a TopCount Microplate Scintillation Counter (Packard Instrument Company).

rat TAAR1 = rat TAAR1 (Rattus norvegicus (Rat), UniProt Q923Y9); test: Radioligand binding assay on rat TAAR1; conditions: rat TAAR1, membranes of HEK-293 cells, second value of the cell pair mouse/rat
Chain of rat TAAR1 (Q923Y9 whole entry): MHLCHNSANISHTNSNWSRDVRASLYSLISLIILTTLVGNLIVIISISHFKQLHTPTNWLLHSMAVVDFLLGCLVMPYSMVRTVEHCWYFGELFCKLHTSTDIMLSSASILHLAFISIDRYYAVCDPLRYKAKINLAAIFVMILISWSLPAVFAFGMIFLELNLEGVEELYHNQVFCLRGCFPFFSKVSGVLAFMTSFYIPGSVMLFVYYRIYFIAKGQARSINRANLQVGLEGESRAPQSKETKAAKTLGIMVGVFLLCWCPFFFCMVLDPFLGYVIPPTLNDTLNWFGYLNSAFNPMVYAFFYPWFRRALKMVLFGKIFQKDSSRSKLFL
Description: as §1, §2
(B) Radioligand Binding Assay on Rat TAAR1
as §3
as §4, with “rat” for “mouse”

Chain of mouse TAAR1 (Q923Y8 whole entry): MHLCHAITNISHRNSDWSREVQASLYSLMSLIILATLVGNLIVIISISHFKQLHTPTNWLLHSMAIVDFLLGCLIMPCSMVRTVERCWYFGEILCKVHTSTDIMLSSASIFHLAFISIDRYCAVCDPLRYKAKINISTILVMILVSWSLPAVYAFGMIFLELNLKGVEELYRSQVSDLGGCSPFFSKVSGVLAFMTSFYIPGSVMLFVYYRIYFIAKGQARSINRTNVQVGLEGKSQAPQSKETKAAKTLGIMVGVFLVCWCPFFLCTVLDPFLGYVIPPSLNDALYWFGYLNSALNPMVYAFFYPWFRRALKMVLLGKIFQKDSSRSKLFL

SMILES: N#Cc1ccc(-c2cc(-c3ccc([C@@H]4CNCCO4)cc3)n[nH]2)cc1 [Example 32, (R)-4-(3-(4-(Morpholin-2-yl)phenyl)-1H-pyrazol-5-yl)benzonitrile hydrochloride]
- Ki (mouse TAAR1): 0.0019 µM
- Ki (rat TAAR1): 0.0154 µM
